The source of these data is PubChem BioAssay AID2041 (NMMLSC, 2009).

A word on the Ki: it is the equilibrium dissociation constant of an inhibitor or competing ligand from its target.

This test addresses Rab7 GTPase wildtype (dog), GST fusion. Description: Rab7 wildtype GTP binding inhibitors, SAR follow-up, biochemical, dog Rab7, bead multiplex flow cytometry, Bodipy-FL-GTP, pyrazoline series (AID 2041). The note with it: Bead-based flow cytometry, Ki calculated from EC50.
As for `Clc1ccc(N2N=C(c3ccccc3)CC2c2ccccc2)cc1` (stereo not drawn), the Ki was 430 nM.

For the molecule `O=S(=O)(c1ccc(N2N=C(c3ccccc3)CC2c2ccccc2)cc1)C(F)F` (stereo not drawn), the Ki was 30 nM.

`COc1ccc(C2CC(c3ccc(F)cc3)=NN2c2cc(Cl)ccc2Cl)cc1` (stereo not drawn): the Ki was 730 nM.

For the molecule `COc1ccc(C2CC(c3ccc(F)cc3)=NN2c2cccc(F)c2)cc1OC` (stereo not drawn), the Ki is 1470 nM.

With `COc1ccc(C2=NN(c3ccccc3)C(c3ccc(Cl)cc3)C2)cc1` (stereo not drawn), the inhibition constant (Ki) is 40 nM.

In the case of `COc1ccccc1N1N=C(c2ccccc2)CC1c1ccccc1` (stereo not drawn), the Ki is 660 nM.

With `COc1ccc(C2=NN(c3cccc(F)c3)C(c3ccc(OC)cc3)C2)cc1` (stereo not drawn), the inhibition constant Ki is 10 nM.

Turning to `COc1ccc(C2CC(c3cccc(Cl)c3)=NN2c2ccc(S(N)(=O)=O)cc2)cc1` (stereo not drawn), the Ki was 10 nM.
